Measurements: patent US10654866B2, “Selective estrogen receptor degraders” (Eli Lilly and Company, priority 2018, dated 2020)

Columns and labels:
[1] = molecular target: ERα (wild type) (Homo sapiens (Human), UniProt P03372); experiment: ERα (wild type) competition binding assay; settings: 3H-estradiol competition; Ki from IC50 by Cheng-Prusoff
Experimental: (§1) Add the test compound at 10 different concentrations ranging from 10,000 nM to 0.5 nM, and determine nonspecific binding in the presence of 1 μM of 1713 estradiol. Incubate the binding reaction (140 μL) for 4 hours at room temperature, and then add cold dextran-charcoal buffer (70 μL) (containing per 50 mL of assay buffer, 0.75 g of charcoal and 0.25 g of dextran) to each reaction. Mix the plates for 8 minutes on an orbital shaker at 4° C. and then centrifuge at 3000 rpm at 4° C. for 10 minutes. Transfer an aliquot (120 μL) of the mixture to another 96-well, white flat bottom plate (Costar) and add Perkin Elmer Optiphase Supermix scintillation fluid (175 μL) to each well. Seal the plates and shake vigorously on an orbital shaker. After an incubation of 2.5 hours, read the plates in a Wallac Microbeta counter. […] Convert the IC50 values for the compound to Ki using Cheng-Prusoff equation.

[2] = molecular target: ERα (Y537S mutant) (Homo sapiens (Human), UniProt P03372, Y537S); experiment: ERα (Y537S mutant) competition binding assay; settings: 3H-estradiol competition; Ki from IC50 by Cheng-Prusoff
ERα (Y537S mutant), sequence (P03372 whole entry Y537S): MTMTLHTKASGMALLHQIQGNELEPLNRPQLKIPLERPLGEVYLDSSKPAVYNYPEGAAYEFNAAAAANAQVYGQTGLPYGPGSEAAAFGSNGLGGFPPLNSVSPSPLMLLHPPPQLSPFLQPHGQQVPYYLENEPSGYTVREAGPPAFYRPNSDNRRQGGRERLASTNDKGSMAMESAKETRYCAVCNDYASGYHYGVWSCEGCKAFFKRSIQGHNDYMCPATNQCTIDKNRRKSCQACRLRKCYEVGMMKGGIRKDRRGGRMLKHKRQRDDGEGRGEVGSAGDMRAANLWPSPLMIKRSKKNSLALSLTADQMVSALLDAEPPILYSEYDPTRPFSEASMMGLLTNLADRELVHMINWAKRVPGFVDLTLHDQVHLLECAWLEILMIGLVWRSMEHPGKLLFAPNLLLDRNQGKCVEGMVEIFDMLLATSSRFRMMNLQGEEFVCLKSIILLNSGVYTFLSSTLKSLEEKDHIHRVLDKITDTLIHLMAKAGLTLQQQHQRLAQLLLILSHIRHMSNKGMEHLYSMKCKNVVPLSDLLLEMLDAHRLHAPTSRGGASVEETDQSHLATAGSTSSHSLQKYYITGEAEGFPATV
Experimental: as §1

[3] = molecular target: T1, ERα (Homo sapiens (Human), UniProt P03372); experiment: ERα degradation assay in MCF7 cells; type: cell-based; settings: 24 hours, % ER positive cells, read-out: Relative IC50
T1 sequence (P03372 whole entry): as the sequence (P03372 whole entry Y537S) above, with S537Y counted along it
Experimental: The purpose of the following ERα degradation assay is to measure the degradation of ERα by a test compound in an ERα positive breast cancer cell line such as MCF7.
Culture MCF7 (purchased from ATCC HTB-22) cells in DMEM media supplemented with 10% FBS, 0.01 mg/mL human insulin 1 and 1% penicillin/streptomycin antibiotics and plate in 384-well flat-bottom plates at a density of 4,000 cells per well in phenol red free DMEM media (20 μL) containing 10% charcoal stripped FBS. Incubate the cells overnight in a cell culture incubator (5% CO2, 95% relative humidity and 37° C.) and allow the cells to attach to the plate. The following day dose the cells with the test compound. Use an Echo 555 acoustic dispenser to prepare test compound serial dilutions (1:3) in a range from 6 μM to 0.0003 μM. Dose the cells with the addition of 5 μL from the serial dilution plate to the cell plate producing a final DMSO concentration of 0.2% with a final test compound concentration dose range between 2 and 0.0001 μM. For the maximum point, use media containing 0.2% of DMSO and for the minimum point, use fulvestrant diluted at 2 μM final concentrations in the growth media containing 0.2% DMSO. After dosing with the test compound, incubate the cell plates at 37° C. and 5% CO2 for 24 hours. Fix the cells by adding 14% para-formaldehyde (10 μL) for 30 minutes at room temperature. Wash the cells once with PBS (20 μL) and incubate with PBS (20 μL) containing 0.5% (v/v) TWEEN® 20 for 1 hour. Wash the cells with PBS containing 0.05% TWEEN® 20 (2×) and block with 3% BSA in PBS containing 0.05% TWEEN® 20 and 0.1% TRITON™ X-100 (20 μL/well) for 1 hour at room temperature. Add 1:500 Primary antibody (20 μL) (ERα (Clone SP1) monoclonal rabbit antibody # RM-9101-S, Thermo Scientific) dilution in 1% BSA in PBS containing 0.05% TWEEN® 20 per well, seal the plates and incubate overnight at 4° C. The following day wash the cells with PBS containing 0.05% TWEEN® 20 (2×) and incubate with secondary antibody (20 μL/well) (1:1000 dilution, Goat anti-rabbit IgM ALEXA FLUOR™ 488) in PBS 1% BSA for 105 minutes at room temperature. […] Seal the plates and incubate 1 hour at room temperature on the bench (preserved from light). Scan the plates with ACUMEN EXPLORER™ [Laser-scanning fluorescence microplate cytometer manufactured by TTP LABTECH LTD] to measure ERα. Image analysis is based on cellular fluorescent signals for identifying positive cells. Identify ER positive cells by mean intensity. Use total intensity at 575-640 nm from propidium iodide/DNA to identify individual cells. Assay output is % ER positive cells. Determine the IC50 by curve fitting to a four parameter logistic for each output using GENE DATA™.

[4] = molecular target: Y537N mutant ERα receptor (Homo sapiens, UniProt P03372, Y537N); experiment: PRα inhibition (ERα functional antagonism) cell assay in MCF7-ESR1 Y537N 682 CRISPR cells; type: cell-based; settings: MCF7 Y537N 682 CRISPR cells, 72 hours, % PR positive cells; read-out: Relative IC50
Experimental: An antagonist in this assay is expected to block the function of the ERα receptor.
Incubate the cells overnight in a cell culture incubator (5% CO2, 95% relative humidity and 37° C.) and allow the cells to attach to the plate. The following day dose the cells with the test compound. Use an Echo 555 acoustic dispenser to prepare compound serial dilutions (1:3) in a range from 6 μM to 0.0003 μM. Dose the cells with the addition of 5 μL from the serial dilution plate to the cell plate producing a final DMSO concentration of 0.2% with a final test compound concentration dose range between 2 and 0.0001 μM. For the maximum point use media containing 0.2% of DMSO and for the minimum point, use fulvestrant diluted at 2 μM final concentrations in the growth media containing 0.2% DMSO. After dosing with test compound, incubate the cell plates at 37° C. and 5% CO2 for 72 hours. Fix the cells by adding 14% para-formaldehyde (10 μL) for 30 minutes at room temperature. Wash the cells with PBS (1×20 μL) and incubate with PBS (20 μL) of containing 0.5% (v/v) TWEEN® 20 for 1 hour. Wash the cells with PBS (2×20 μL) 0.05% TWEEN® 20, and block with 3% BSA/PBS 0.05% TWEEN® 20, 0.1% TRITON™ X-100 (20 μL/well) for 1 hour at room temperature. Add 1:500 primary antibody (20 μL) (PR monoclonal mouse anti-human antibody, clone PgR 636 Dako, M3569) dilution in 1% BSA/PBS 0.05 TWEEN® 20 per well, seal the plates and incubate overnight at 4° C.
The following day, wash the cells with PBS […] (2×20 μL) and incubate with secondary antibody (20 μL/well) (1:1000 dilution, Goat anti-rabbit IgM ALEXA FLUOR™ 488) in PBS 1% BSA for 105 minutes at room temperature. […] Seal the plates and incubate 1 hour at room temperature on the bench (preserved from light). Scan the plates with ACUMEN EXPLORER™ [Laser-scanning fluorescence microplate cytometer manufactured by TTP LABTECH LTD] to measure PRα. Image analysis is based on cellular fluorescent signals for identifying positive cells. Identify PR positive cells by mean intensity. Use total intensity at 575-640 nm from propidium iodide/DNA to identify individual cells. Assay output is % PR positive cells. Determine the IC50 by curve fitting to a four parameter logistic for each output using GENE DATA™.

[5] = molecular target: T1, ERα; experiment: PRα inhibition (ERα functional antagonism) cell assay in MCF7 cells; type: cell-based; settings: MCF7 cells pretreated with 0.47 nM estradiol, % PRα positive cells; read-out: Relative IC50
Source text: The purpose of the following PRα inhibition (ERα functional antagonism) cell assay is to determine the antagonistic activity of a test compound against the ERα receptor. An antagonist in this assay is expected to block the function of the ERα receptor.
Carry out the assay conditions as detailed in the ERα degradation Cell base Acumen assay above, using the MCF7 cell line except that, prior to test compound dispensing, remove the media from the cell plate and pretreat all wells except for the negative control wells (column 24 of the plate) with assay media containing 0.47 nM estradiol for 30 minutes. In this assay, carry out immunostaining for the detection of PRα and scan the plates with ACUMEN EXPLORER™ [Laser-scanning fluorescence microplate cytometer manufactured by TTP LABTECH LTD] to measure PRα. Image analysis is based on cellular fluorescent signals for identifying positive cells. Identify PRα positive cells by mean intensity. Use total intensity at 575-640 from propidium iodide/DNA to identify individual cells. Assay output is % PRα positive cells. Determine the IC50 by curve fitting to a four parameter logistic for each output using GENE DATA™.

[6] = system: MCF7 ER-positive breast cancer model; experiment: In vivo combination studies in MCF7 ER-positive breast cancer xenograft model; design: species or system mice; settings: for Difference (Treatment 1 − Treatment 2): Treatment 1 = Vehicle, log10 tumor volume
Source text: Otherwise, the statistical conclusion is additive.

ERα (wild type), sequence (P03372 whole entry): as the sequence (P03372 whole entry Y537S) above, with S537Y counted along it

Row | SMILES | Ki [1] [nM] | Ki [2] [nM] | DC50 [3] [nM] | IC50 [4] [nM] | further results
1 | Oc1ccc2c3c(cnc2c1)-c1ccc(Cl)cc1OC3c1ccc(OCCN2CC(CF)C2)cc1 (racemic) [Example 3, 8-chloro-5-(4-{2-[3-(fluoromethyl)azetidin-1-yl]ethoxy}phenyl)-5H-[1]benzopyrano[4,3-c]quinolin-2-ol] | 2.36 | 6.69 | 33.5 ± 7.83 | 77.2 ± 11.5 | 
2 | Oc1ccc2c3c(cnc2c1)-c1ccc(Cl)cc1OC3c1ccc(OCCN2CC(CF)C2)cc1 (single isomer, unassigned) [Example 3A, 8-Chloro-5-(4-{2-[3-(fluoromethyl)azetidin-1-yl]ethoxy}phenyl)-5H-[1]benzopyrano[4,3-c]quinolin-2-ol] | 8.11 | 27.2 | 390 | 612 | IC50 [5]: 927 nM
3 | Oc1ccc2c3c(cnc2c1)-c1ccc(Cl)cc1OC3c1ccc(OCCN2CC(CF)C2)cc1 (single isomer, unassigned) [Example 3B, 8-Chloro-5-(4-{2-[3-(fluoromethyl)azetidin-1-yl]ethoxy}phenyl)-5H-[1]benzopyrano[4,3-c]quinolin-2-ol] | 0.59 | 2.79 | 8.66 | 16 | IC50 [5]: 34.4 nM
4 | CCN1CCN(Cc2ccc(Nc3ncc(F)c(-c4cc(F)c5nc(C)n(C(C)C)c5c4)n3)nc2)CC1 [Abemaciclib, abemaciclib, reference compound] |  |  |  |  | Delta T/C % or % Regression ([6]; Example 1B 10 mpk, Abemaciclib 50 mpk, QD × 42, PO (Table 16)): −52%; Delta T/C % or % Regression ([6]; Example 10 15 mpk, Abemaciclib 50 mpk, QD × 42, PO (Table 20)): −70%; Difference (Treatment 1 − Treatment 2) ([6]; Example 1B 10 mpk, Abemaciclib 50 mpk, QD × 42, PO): 0.479; Difference (Treatment 1 − Treatment 2) ([6]; Example 10 15 mpk, Abemaciclib 50 mpk, QD × 42, PO): 0.445
5 | CO[C@@H](C)Cn1c(=O)n(C)c2cnc3ccc(-c4cncc(C(C)(C)O)c4)cc3c21 [Compound A, 8-[5-(1-hydroxy-1-methylethyl)pyridin-3-yl]-1-[(2 S)-2-methoxypropyl]-3-methyl-1,3-dihydro-2H-imidazo[4,5-c]quinolin-2-one, reference compound] |  |  |  |  | Delta T/C % or % Regression ([6]; Example 1B 10 mpk QD × 42, Compound A 7.5 mpk BID × 42, PO (Table 18)): −36%; Difference (Treatment 1 − Treatment 2) ([6]; Example 1B 10 mpk QD × 42, Compound A 7.5 mpk BID × 42, PO): 0.504
6 | CO[C@H]1C[C@@H]2CC[C@@H](C)[C@@](O)(O2)C(=O)C(=O)N2CCCC[C@H]2C(=O)O[C@H]([C@H](C)C[C@@H]2CC[C@@H](OCCO)[C@H](OC)C2)CC(=O)[C@H](C)/C=C(\C)[C@@H](O)[C@@H](OC)C(=O)[C@H](C)C[C@H](C)/C=C/C=C/C=C/1C [Everolimus, everolimus, reference compound] |  |  |  |  | Delta T/C % or % Regression ([6]; Example 10 15 mpk, Everolimus 5 mpk, QD × 42, PO (Table 24)): −50%; Difference (Treatment 1 − Treatment 2) ([6]; Example 10 15 mpk, Everolimus 5 mpk, QD × 42, PO): 0.433
7 | Cc1nc(NC(=O)N2CCC[C@H]2C(N)=O)sc1-c1ccnc(C(C)(C)C(F)(F)F)c1 [alpelisib, reference compound] |  |  |  |  | Delta T/C % or % Regression ([6]; Example 10 15 mpk, alpelisib 15 mpk (d1-d7), 10 mpk (d8-42), QD × 42, PO (Table 22)): −21%; Difference (Treatment 1 − Treatment 2) ([6]; Example 10 15 mpk, alpelisib 15 mpk (d1-d7), 10 mpk (d8-42), QD × 42, PO): 0.445
